Source: the supplement of paper PMC11451515

Experiments:
Conditions in all cases: 48 h
NOMO1 [1] = assay: AUC of viability dose-response curve (% viability x log10 dose units); higher = less sensitive
Method in brief: (§1)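 Area under the curve was integrated by trapezoidal rule from a log-logistic fit of normalised viability, with curves exceeding full viability scaled and quality-control failures removed. The fit had four parameters over log10 doses. Viability came from CellTiter-Glo One luminescence, normalised per plate to DMSO and cell-free wells, after leukemia cells adapted to each medium (500 or 1000 cells/well, 1536-well plates) were exposed to library compounds in DMSO for 48 h at 37°C. The 11 threefold doses ran from 47 μM to 0.79 nM.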

P12-Ichikawa [2] = assay: as above
Method in brief: as §1

SEM cells [3] = assay: as above
Method in brief: as §1

NOMO1 [4] = assay: cell viability relative to DMSO control; higher = less cytotoxic
Method in brief: (§2)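 NOMO1 or SEM (500 cells/well) or P12-Ichikawa (1000 cells/well) leukemia cells were adapted for at least four passages in each medium. They were seeded in 1536-well plates (5 μl) and pin-dosed with library compounds in DMSO over an 11-point threefold series, 47 μM to 0.79 nM. CellTiter-Glo One luminescence was read after 48 h at 37°C. Viability is the per-plate percentage relative to DMSO wells, with cell-free wells as background.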

P12-Ichikawa [5] = assay: as above
Method in brief: as §2

SEM cells [6] = assay: as above
Method in brief: as §2

OC1=CC2=C(C(=O)\C=C(/O2)C3=CC=CC=C3)C(=C1O)O
AUC of viability dose-response curve
Conditions	NOMO1 [1]	P12-Ichikawa [2]	SEM cells [3]
HPLM + 10% dialyzed FBS	441	391	407
RPMI 5 mM glucose + 10% FBS	431	413	379
RPMI 5 mM glucose + 10% dialyzed FBS	441	418	402

cell viability [%]
Conditions	NOMO1 [4]	P12-Ichikawa [5]	SEM cells [6]
HPLM + 10% dialyzed FBS, 0.000781 µM	93.6	114	105
HPLM + 10% dialyzed FBS, 0.00234 µM	102	110	116
HPLM + 10% dialyzed FBS, 0.00702 µM	117	120	106
HPLM + 10% dialyzed FBS, 0.0211 µM	107	113	103
HPLM + 10% dialyzed FBS, 0.0632 µM	111	113	111
HPLM + 10% dialyzed FBS, 0.19 µM	106	106	109
HPLM + 10% dialyzed FBS, 0.569 µM	108	111	104
HPLM + 10% dialyzed FBS, 1.71 µM	92.2	109	93.3
HPLM + 10% dialyzed FBS, 5.12 µM	72.6	64.9	77.5
HPLM + 10% dialyzed FBS, 15.4 µM	82.8	9.59	25.6
HPLM + 10% dialyzed FBS, 46.1 µM	83.1	10.4	23.8
RPMI 5 mM glucose + 10% FBS, 0.000781 µM	118	117	–
RPMI 5 mM glucose + 10% FBS, 0.00234 µM	105	112	–
RPMI 5 mM glucose + 10% FBS, 0.00702 µM	105	104	–
RPMI 5 mM glucose + 10% FBS, 0.0211 µM	115	118	–
RPMI 5 mM glucose + 10% FBS, 0.0632 µM	96.8	120	–
RPMI 5 mM glucose + 10% FBS, 0.19 µM	111	111	–
RPMI 5 mM glucose + 10% FBS, 0.569 µM	103	117	–
RPMI 5 mM glucose + 10% FBS, 1.71 µM	111	116	–
RPMI 5 mM glucose + 10% FBS, 5.12 µM	84	114	–
RPMI 5 mM glucose + 10% FBS, 15.4 µM	52.4	13.3	–
RPMI 5 mM glucose + 10% FBS, 46.1 µM	57.4	12	–
RPMI 5 mM glucose + 10% dialyzed FBS, 0.000781 µM	113	113	108
RPMI 5 mM glucose + 10% dialyzed FBS, 0.00234 µM	108	117	94.4
RPMI 5 mM glucose + 10% dialyzed FBS, 0.00702 µM	110	120	102
RPMI 5 mM glucose + 10% dialyzed FBS, 0.0211 µM	107	112	94.5
RPMI 5 mM glucose + 10% dialyzed FBS, 0.0632 µM	102	111	104
RPMI 5 mM glucose + 10% dialyzed FBS, 0.19 µM	112	110	99.5
RPMI 5 mM glucose + 10% dialyzed FBS, 0.569 µM	106	112	106
RPMI 5 mM glucose + 10% dialyzed FBS, 1.71 µM	98.6	118	102
RPMI 5 mM glucose + 10% dialyzed FBS, 5.12 µM	96	108	69.5
RPMI 5 mM glucose + 10% dialyzed FBS, 15.4 µM	55.2	23.7	16.7
RPMI 5 mM glucose + 10% dialyzed FBS, 46.1 µM	64.9	23.2	14.6

CN1C(=O)CCS(=O)(=O)C1c1ccc(Cl)cc1 (centres undefined)
AUC of viability dose-response curve
Conditions	HPLM + 10% dialyzed FBS	RPMI 5 mM glucose + 10% FBS	RPMI 5 mM glucose + 10% dialyzed FBS
NOMO1 [1]	447	472	459
P12-Ichikawa [2]	452	448	442

CO[C@H]1/C=C/O[C@@]2(C)Oc3c(C)c(O)c4c(O)c(c(/C=N/N5CCN(C)CC5)c(O)c4c3C2=O)NC(=O)/C(C)=C\C=C\[C@H](C)[C@H](O)[C@@H](C)[C@@H](O)[C@@H](C)[C@H](OC(C)=O)[C@@H]1C
AUC of viability dose-response curve
Conditions	HPLM + 10% dialyzed FBS	RPMI 5 mM glucose + 10% FBS	RPMI 5 mM glucose + 10% dialyzed FBS
NOMO1 [1]	431	461	461
P12-Ichikawa [2]	441	445	430

cell viability [%]
Conditions	NOMO1 [4]	P12-Ichikawa [5]	SEM cells [6]
HPLM + 10% dialyzed FBS, 0.000781 µM	–	116	107
HPLM + 10% dialyzed FBS, 0.00234 µM	–	117	121
HPLM + 10% dialyzed FBS, 0.00702 µM	–	124	130
HPLM + 10% dialyzed FBS, 0.0211 µM	–	120	126
HPLM + 10% dialyzed FBS, 0.0632 µM	–	127	119
HPLM + 10% dialyzed FBS, 0.19 µM	–	114	121
HPLM + 10% dialyzed FBS, 0.569 µM	–	108	119
HPLM + 10% dialyzed FBS, 1.71 µM	–	110	113
HPLM + 10% dialyzed FBS, 5.12 µM	–	99.8	102
HPLM + 10% dialyzed FBS, 15.4 µM	–	94.9	96.1
HPLM + 10% dialyzed FBS, 46.1 µM	–	63.7	67
RPMI 5 mM glucose + 10% FBS, 0.000781 µM	111	128	62.7
RPMI 5 mM glucose + 10% FBS, 0.00234 µM	123	111	84.8
RPMI 5 mM glucose + 10% FBS, 0.00702 µM	117	118	87.1
RPMI 5 mM glucose + 10% FBS, 0.0211 µM	127	118	82.4
RPMI 5 mM glucose + 10% FBS, 0.0632 µM	129	124	77.1
RPMI 5 mM glucose + 10% FBS, 0.19 µM	118	112	78.6
RPMI 5 mM glucose + 10% FBS, 0.569 µM	125	123	75.4
RPMI 5 mM glucose + 10% FBS, 1.71 µM	123	116	74.9
RPMI 5 mM glucose + 10% FBS, 5.12 µM	111	98.3	55
RPMI 5 mM glucose + 10% FBS, 15.4 µM	102	89.9	56
RPMI 5 mM glucose + 10% FBS, 46.1 µM	98.5	75.4	23.5
RPMI 5 mM glucose + 10% dialyzed FBS, 0.000781 µM	118	124	108
RPMI 5 mM glucose + 10% dialyzed FBS, 0.00234 µM	119	120	104
RPMI 5 mM glucose + 10% dialyzed FBS, 0.00702 µM	129	123	104
RPMI 5 mM glucose + 10% dialyzed FBS, 0.0211 µM	115	123	103
RPMI 5 mM glucose + 10% dialyzed FBS, 0.0632 µM	122	122	109
RPMI 5 mM glucose + 10% dialyzed FBS, 0.19 µM	117	111	108
RPMI 5 mM glucose + 10% dialyzed FBS, 0.569 µM	104	109	123
RPMI 5 mM glucose + 10% dialyzed FBS, 1.71 µM	112	115	111
RPMI 5 mM glucose + 10% dialyzed FBS, 5.12 µM	119	93.2	102
RPMI 5 mM glucose + 10% dialyzed FBS, 15.4 µM	96.1	82	90.4
RPMI 5 mM glucose + 10% dialyzed FBS, 46.1 µM	79.6	70.6	66.5

Nc1nc2ccc(OC(F)(F)F)cc2s1
AUC of viability dose-response curve
Conditions	NOMO1 [1]	P12-Ichikawa [2]	SEM cells [3]
HPLM + 10% dialyzed FBS	453	462	462
RPMI 5 mM glucose + 10% FBS	455	461	461
RPMI 5 mM glucose + 10% dialyzed FBS	455	466	461

cell viability [%], SEM cells [6]
Conditions	HPLM + 10% dialyzed FBS	RPMI 5 mM glucose + 10% dialyzed FBS
0.000781 µM	137	127
0.00234 µM	119	123
0.00702 µM	120	125
0.0211 µM	133	131
0.0632 µM	134	119
0.19 µM	127	129
0.569 µM	131	147
1.71 µM	131	123
5.12 µM	130	130
15.4 µM	114	118
46.1 µM	78.3	64

CNC1CCCN(c2c(F)cc3c(=O)c(C(=O)O)cn(C4CC4)c3c2OC)C1 (centres undefined)
AUC of viability dose-response curve
Conditions	HPLM + 10% dialyzed FBS	RPMI 5 mM glucose + 10% FBS	RPMI 5 mM glucose + 10% dialyzed FBS
P12-Ichikawa [2]	432	441	443
SEM cells [3]	462	445	456

SEM cells [6], HPLM + 10% dialyzed FBS
Conditions	cell viability [%]
0.000781 µM	120
0.00234 µM	123
0.00702 µM	131
0.0211 µM	139
0.0632 µM	134
0.19 µM	125
0.569 µM	133
1.71 µM	122
5.12 µM	115
15.4 µM	117
46.1 µM	113

OCCn1cc(-c2ccc3c(c2)CC/C3=N\O)c(-c2ccncc2)n1
AUC of viability dose-response curve
Conditions	NOMO1 [1]	P12-Ichikawa [2]	SEM cells [3]
HPLM + 10% dialyzed FBS	464	444	462
RPMI 5 mM glucose + 10% FBS	468	450	465
RPMI 5 mM glucose + 10% dialyzed FBS	472	440	472

O=[S+]([O-])(F)Cc1ccccc1
AUC of viability dose-response curve
Conditions	NOMO1 [1]	P12-Ichikawa [2]	SEM cells [3]
HPLM + 10% dialyzed FBS	434	446	455
RPMI 5 mM glucose + 10% FBS	468	448	440
RPMI 5 mM glucose + 10% dialyzed FBS	476	442	446

SEM cells [6], HPLM + 10% dialyzed FBS
Conditions	cell viability [%]
0.000781 µM	120
0.00234 µM	122
0.00702 µM	134
0.0211 µM	122
0.0632 µM	125
0.19 µM	50.5
0.569 µM	109
1.71 µM	133
5.12 µM	114
15.4 µM	115
46.1 µM	112
